Molecules are shown by their SMILES.

The subject of experiment [1] is four human cancer cell lines (HT-29, A-549, MCF-7, Panc-1). The experiment in a line: Antiproliferative assay, mean over four cancer cell lines (GI50). As to conditions: Homo sapiens, read-out: Average IC50 (GI50).
Procedure: To calculate the total nuclear DNA, a fluorescent dye (propidium iodide, PI) is used which can attach to the DNA, thus offering a quick and precise technique. PI cannot pass through the cell membrane and its signal intensity can be considered as directly proportional to quantity of cellular DNA. Cells whose cell membranes are damaged or have changed permeability are counted as dead ones. […] The medium was removed; the compounds were added to the plates at 10 µM concentrations (in 0.1% DMSO) in triplicates, followed by incubation for 48 h. DMSO (0.1%) was used as control. After incubation, medium was removed followed by the addition of PI (25 µl, 50µg/mL in water/medium) to each well of the plates. At -80 °C, the plates were allowed to freeze for 24 h, followed by thawing at 25 °C. A fluorometer (Polar-Star BMG Tech) was used to record the readings at excitation and emission wavelengths of 530 and 620 nm for each well. The percentage cytotoxicity of compounds was calculated using the following formula:
In another experiment the test system is Bcl-2. Description: Bcl-2 inhibition assay in MCF-7 cells. The format is cell-based, human. Conditions: for Bcl-2 Conc: compound at its IC50. As for the experimental part:
The current study supplied compounds 6i and 10e to breast (MCF-7) cancer cell lines at their respective IC50 values. This led to a notable elevation of pro-apoptotic Bax expression, with a fold increase of 34 for compound 6i and 36 for compound 10e.
Compounds 6i and 10e were assessed for their ability to activate caspase-3, caspase-8, and Bax, as well as to downregulate the anti-apoptotic protein Bcl2 in the MCF-7 breast cancer cell line ([Abdelbaset et al., 2019]). Supplementary Appendix A provides more details.
Mix all the reagents thoroughly without foaming before use. Wash the microwells twice with approximately 300 μL Wash Buffer per well with thorough aspiration of microwell contents between washes. Take caution not to scratch the surface of the microwells. After the last wash, empty the wells and tap microwell strips on an absorbent pad or paper towel to remove excess Wash Buffer. Use the microwell strips immediately after washing or place upside down on a wet absorbent paper for not longer than 15 minutes. […] Add 100 μL of Sample Diluent in duplicate to all standard wells and to the blank wells. Prepare standard (1:2 dilution) in duplicate ranging from 32 ng/mL to 0.5 ng/mL. Add 100 μL of Sample Diluent, in duplicate, to the blank wells. Add 80 μL of Sample Diluent, in duplicate, to the sample wells. Add 20 μL of each Sample, in duplicate, to the designated wells. Add 50 μL of diluted biotin-conjugate to all wells, including the blank wells. Cover with a plate cover and incubate at room temperature, on a microplate shaker at 100 rpm if available, for 2 hours. Remove plate cover and empty the wells. Wash microwell strips 3 times as described in step 2. Add 100 μL of diluted Streptavidin-HRP to all wells, including the blank wells. Cover with a plate cover and incubate at room temperature, on a microplate shaker at 100 rpm if available, for 1 hour. Remove the plate cover and empty the wells. Wash microwell strips 3 times as described in step 2. Proceed to the next step. Pipette 100 μl of mixed TMB Substrate Solution to all wells, including the blanks. Incubate the microwell strips at room temperature (18° to 25°C) for about 15 minutes, if available on a rotator set at 100 rpm. Avoid direct exposure to intense light. The point, at which the substrate reaction is stopped, is often determined by the ELISA reader. Many ELISA readers record absorbance only up to 2.0 O.D. Therefore, the color development within individual microwells must be watched by the person running the assay and the substrate reaction stopped before positive wells are no longer properly detectable. Stop the enzyme reaction by quickly pipetting 100 μL of Stop Solution into each well, including the blank wells. It is important that the Stop Solution is spread quickly and uniformly throughout the microwells to completely inactivate the enzyme. Results must be read immediately after the Stop Solution is added or within one hour if the microwell strips are stored at 2 - 8°C in the dark. Read the absorbance of each microwell on a spectrophotometer using 450 nm as the primary wavelength.

The subject of experiment [2] is A-549 (lung cancer cell line). Description: Antiproliferative assay, A-549. The format is cell-based, human. As to conditions: Homo sapiens, A549; read-out: Antiproliferative activity IC50 ± SEM, A-549. From the text: Refer to Supplementary Appendix A for more information.
DMSO (0.1%) was used as control.

`O=[N+]([O-])c1cccc(-n2cc(Cn3c(SCc4ccccc4)nc4ccccc43)nn2)c1` [10e]: the IC50 was found to be 0.025 µM in experiment [1] and 0.026 ± 0.002 µM in experiment [2]. For the same compound, the “Bcl-2 Conc” value with Bcl-2 is 0.70 ng/mL. For the same compound, in the experiment with Bcl-2 (vs untreated control), the “Bcl-2 Fold reduction” value is on record as about 7.
As for `NS(=O)(=O)c1ccc(-n2cc(CSc3nc4ccccc4[nH]3)nn2)cc1` [6i, 4-(4-(((1H-benzimidazol-2-yl)thio)methyl)-1H-1,2,3-triazol-1-yl)benzene-sulfonamide], the IC50 in experiment [1] is 0.029 µM; in experiment [2], 0.03 ± 0.002 µM. Moreover, the “Bcl-2 Conc” value in the experiment with Bcl-2 is reported as 0.85 ng/mL.
